Measured values as given in US20260159520A1, “HETEROBIFUNCTIONAL COMPOUNDS AND METHODS OF TREATING DISEASE” (Halda Therapeutics OpCo, Inc., priority 2022, published 2026).

Experiments:
[1] = test system: T-Rex 293 cell line SC cells lacking increased expression of progesterone receptor isoform B protein; assay: Cellular growth inhibition, T-Rex 293 SC cells without doxycycline; assay type: cell-based; settings: not exposed to doxycycline, 72 hours, CellTiter-Glo 2.0
CDK9 = target: T1, CDK9 (Homo sapiens, UniProt P50750); assay: KdELECT binding assay, CDK9; settings: CDK9, Table 7
T1 construct: made in house; host or cells: E. coli BL21-derived host (T7 phage) or HEK-293 ('BEK-293' [sic])
Method in brief: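 Phage-tagged or HEK-derived DNA-tagged kinases competed 1 h at room temperature against bead-immobilised biotinylated ligand in SeaBlock/PBS/Tween/DTT buffer, 0.9% DMSO final. Bound kinase eluted with 0.5 μM free ligand and quantified by qPCR; Kd from 11-point 3-fold dilution series.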

[2] = test system: T-Rex 293 cell line SC cells having increased expression of progesterone receptor isoform B protein; assay: Cellular growth inhibition, T-Rex 293 SC cells with doxycycline (increased progesterone receptor isoform B expression); assay type: cell-based; settings: with 10 ng/mL doxycycline (increased progesterone receptor isoform B), 72 hours, CellTiter-Glo 2.0

T1 sequence (P50750 whole entry): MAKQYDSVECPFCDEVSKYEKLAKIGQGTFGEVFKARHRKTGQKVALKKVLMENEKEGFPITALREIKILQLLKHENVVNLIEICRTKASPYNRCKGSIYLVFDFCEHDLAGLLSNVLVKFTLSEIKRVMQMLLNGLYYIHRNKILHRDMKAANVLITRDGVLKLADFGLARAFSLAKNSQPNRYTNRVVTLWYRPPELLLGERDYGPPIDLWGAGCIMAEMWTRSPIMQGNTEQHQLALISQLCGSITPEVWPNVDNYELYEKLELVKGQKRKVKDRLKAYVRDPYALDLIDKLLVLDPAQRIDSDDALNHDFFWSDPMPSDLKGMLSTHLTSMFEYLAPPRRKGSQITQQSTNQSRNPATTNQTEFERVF

| Kd (CDK9) [nM] | Compound | GI50 [1] [nM] | GI50 [2] [nM] |
| --- | --- | --- | --- |
| 50 to 500 | Cc1ncc(-c2nc(Nc3ccc(C(=O)N4CC[C@H](N(C)CCOC5CCN(c6ncc(C(=O)N[C@H]7C(C)(C)[C@H](Oc8ccc(C#N)c(Cl)c8)C7(C)C)cn6)CC5)C4)cc3)ncc2F)n1C(C)C [Compound I-95, N-[3-(3-chloro-4-cyano-phenoxy)-2,2,4,4-tetramethyl-cyclobutyl]-2-[4-[2-[[(3S)-1-[4-[[5-fluoro-4-(3-isopropyl-2-methyl-imidazol-4-yl)pyrimidin-2-yl]amino]benzoyl]pyrrolidin-3-yl]-methyl-amino]ethoxy]-1-piperidyl]pyrimidine-5-carboxamide] | < 500 | < 500 |
| > 2500 | CC1(C)[C@H](NC(=O)c2cnc(N3CCC(OCCNS(=O)(=O)c4ccc(Nc5ncc(Br)c(Nc6cccc(F)c6C(N)=O)n5)cc4)CC3)nc2)C(C)(C)[C@H]1Oc1ccc(C#N)c(Cl)c1 [Compound I-13, 2-(4-(2-((4-((5-bromo-4-((2-carbamoyl-3-fluorophenyl)amino)pyrimidin-2-yl)amino)phenyl)sulfonamido)ethoxy)piperidin-1-yl)-N-((1 r,3r)-3-(3-chloro-4-cyanophenoxy)-2,2,4,4-tetramethylcyclobutyl)pyrimidine-5-carboxamide] | > 3000 | > 3000 |
| 50 to 500 | CCc1cnn2c(NCc3ccc(OCC4CCN(CC5CCN(c6ncc(C(=O)N[C@H]7C(C)(C)[C@H](Oc8ccc(C#N)c(Cl)c8)C7(C)C)cn6)CC5)CC4)nc3)cc(N3CCCC[C@H]3CCO)nc12 [Compound I-51] | < 500 | < 500 |
| 50 to 500 | Cc1ncc(-c2nc(Nc3ccc(C(=O)N4CC[C@H](N(C)CCOCCOCCOCCOCCOC5CCN(c6ncc(C(=O)N[C@H]7C(C)(C)[C@H](Oc8ccc(C#N)c(Cl)c8)C7(C)C)cn6)CC5)C4)cc3)ncc2F)n1C(C)C [Compound I-97] | 1500 to 3000 | 500 to 1500 |
| 50 to 500 | CCc1cnn2c(NCc3ccc(OCCOCCOCCOC4CCN(c5ccc(C(=O)N[C@H]6C(C)(C)[C@H](Oc7ccc(C#N)c(Cl)c7)C6(C)C)nn5)CC4)nc3)cc(N3CCCC[C@H]3CCO)nc12 [Compound I-44, N-((1r,3r)-3-(3-chloro-4-cyanophenoxy)-2,2,4,4-tetramethylcyclobutyl)-6-(4-(2-(2-(2-((5-(((3-ethyl-5-((S)-2-(2-hydroxyethyl)piperidin-1-yl)pyrazolo[1,5-a]pyrimidin-7-yl)amino)methyl)pyridin-2-yl)oxy)ethoxy)ethoxy)ethoxy)piperidin-1-yl)pyridazine-3-carboxamide] | < 500 | < 500 |
| 50 to 500 | CCc1cnn2c(NCc3ccc(OCCN4CCN(CC5CCN(c6ncc(C(=O)N[C@H]7C(C)(C)[C@H](Oc8ccc(C#N)c(Cl)c8)C7(C)C)cn6)CC5)CC4)nc3)cc(N3CCCC[C@H]3CCO)nc12 [Compound I-41] | < 500 | < 500 |
